This note sets out measurements from PubChem BioAssay (NCI).

Molecules are shown by their SMILES.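 Tested at 5 concentrations; 48 h exposure; 96-well plates; endpoints linearly interpolated, else capped at highest concentration. GI50: concentration for 50% inhibition of growth. At the TGI there is no net growth.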

Test systems include CCRF-CEM leukemia; U251 CNS; SK-MEL-2 melanoma; NCI/ADR-RES ovarian; NCI-H522 lung; MALME-3M melanoma; SN12C renal; KM12 colon; UACC-257 melanoma; A498 renal.
What all share (assay): NCI anticancer screen, dose series, 48 h

On to `O=C1Nc2ccccc2S/C1=C\c1ccccc1C(F)(F)F`, for which the TGI with CCRF-CEM leukemia, in the assay on U251 CNS, in the assay with SK-MEL-2 melanoma, in the assay on NCI/ADR-RES ovarian, in the assay with NCI-H522 lung and in the assay with MALME-3M melanoma was above 100 µM in each case. The TGI with SN12C renal, in the assay on KM12 colon and in the assay with UACC-257 melanoma was above 100 µM throughout.
`CCCCCCCCCCCCCCCC(=O)OCC1CCCN2CCCCC12` (configuration not stated): the TGI in the assay on CCRF-CEM leukemia, in the assay with U251 CNS, in the assay on SK-MEL-2 melanoma, with NCI/ADR-RES ovarian, in the assay on MALME-3M melanoma and with SN12C renal was above 100 µM throughout. The TGI with KM12 colon, in the assay with A498 renal and in the assay with UACC-257 melanoma was above 100 µM throughout.
In the case of `CC(C)OC(=O)C1=C(O)c2ccccc2S(=O)(=O)N1`, the TGI with CCRF-CEM leukemia, in the assay on U251 CNS, in the assay on SK-MEL-2 melanoma, in the assay with NCI-H522 lung, with MALME-3M melanoma and with SN12C renal was above 100 µM in each case. In addition, the TGI in the assay on KM12 colon, in the assay on A498 renal and with UACC-257 melanoma was above 100 µM throughout.
In the case of `CC1CCC(O)(C(C)(C(=O)O)c2ccccc2)CC1` (configuration not stated), the TGI in the assay on CCRF-CEM leukemia, in the assay on U251 CNS, with SK-MEL-2 melanoma, with NCI/ADR-RES ovarian, in the assay with NCI-H522 lung and in the assay on MALME-3M melanoma was above 100 µM throughout. In addition, the TGI in the assay on SN12C renal, in the assay with KM12 colon, with A498 renal and with UACC-257 melanoma was above 100 µM each time.
`Cc1ccc([N+](=O)[O-])cc1NC(=O)C(=O)C(C(=O)c1ccccc1F)C1OC(=O)c2ccccc21` (configuration not stated): the TGI in the assay with CCRF-CEM leukemia is above 100 µM; in the assay on U251 CNS it was 43.6 µM; in the assay on SK-MEL-2 melanoma it was above 100 µM; in the assay with NCI-H522 lung it was 59.2 µM; in the assay with SN12C renal, above 100 µM; in the assay on KM12 colon, above 100 µM. The TGI in the assay on A498 renal and with UACC-257 melanoma was above 100 µM in each case.
For `CC(=O)O[C@H]1CC[C@@]2(C)C(=CC[C@@H]3[C@@H]2CC[C@]2(C)Nc4c(cnn4S(C)(=O)=O)C[C@@H]32)C1`, the TGI in the assay with CCRF-CEM leukemia, with U251 CNS, in the assay with SK-MEL-2 melanoma, in the assay with NCI/ADR-RES ovarian, in the assay on NCI-H522 lung and in the assay on MALME-3M melanoma was above 100 µM throughout. Also, the TGI with SN12C renal, in the assay with KM12 colon and in the assay with A498 renal was above 100 µM throughout.
`O=C(O)NCc1ccccc1` (tested in a mixture with another compound): the TGI with CCRF-CEM leukemia is 51.7 µM; in the assay with U251 CNS it was above 77.6 µM; in the assay on SK-MEL-2 melanoma, 33.7 µM; with NCI/ADR-RES ovarian, above 90 µM; in the assay with NCI-H522 lung, 96.7 µM; in the assay on MALME-3M melanoma it was 85.9 µM. Further, the TGI in the assay with SN12C renal is above 100 µM; in the assay on KM12 colon it was above 80.4 µM; with A498 renal it was 85.3 µM; in the assay on UACC-257 melanoma, above 95.9 µM.
For `Cc1ccc(S(=O)(=O)N/N=c2\c(C)c(C3=NS(=O)(=O)c4cc(S(N)(=O)=O)c(Cl)cc4N3)oc3c(Cl)cc(Cl)cc23)cc1`, the TGI in the assay with CCRF-CEM leukemia was above 100 µM; in the assay on U251 CNS, 67.9 µM; in the assay on SK-MEL-2 melanoma, above 100 µM; with MALME-3M melanoma, above 100 µM; in the assay on SN12C renal it was above 100 µM; in the assay on KM12 colon, above 100 µM. Moreover, the TGI in the assay with A498 renal and in the assay on UACC-257 melanoma was above 100 µM each time.
Take `CCOC(=O)Nc1cc2c(c(N)n1)N=C(c1ccccc1)[C@H](C)N2`: the TGI in the assay on CCRF-CEM leukemia is 0.0464 µM; in the assay on SK-MEL-2 melanoma it was 13.6 µM; in the assay on NCI-H522 lung it was below 0.0001 µM; in the assay on MALME-3M melanoma, 16.4 µM; in the assay on SN12C renal, above 100 µM. The GI50 in the assay on U251 CNS, in the assay on SN12C renal and in the assay with A498 renal was below 0.0001 µM each time.
Consider `C/C(=N\Oc1cc(Cl)ncn1)c1ccccn1`, for which the TGI in the assay on CCRF-CEM leukemia was above 100 µM; in the assay on U251 CNS, above 100 µM; in the assay with SK-MEL-2 melanoma, above 100 µM; in the assay on NCI/ADR-RES ovarian it was above 100 µM; with NCI-H522 lung it was 39.4 µM; with MALME-3M melanoma it was above 100 µM. Further, the TGI in the assay on SN12C renal, in the assay on KM12 colon and with UACC-257 melanoma was above 100 µM throughout.
As for `COc1cc(N/N=C/C#N)cc(OC)c1OC`, the TGI was above 10 µM in the assay with CCRF-CEM leukemia; above 10 µM in the assay with U251 CNS; above 10 µM in the assay on SK-MEL-2 melanoma; above 10 µM with NCI/ADR-RES ovarian; 3.68 µM in the assay on NCI-H522 lung; above 10 µM with MALME-3M melanoma. Further, the TGI with SN12C renal, in the assay on KM12 colon and with A498 renal was above 10 µM each time.
As to `Cc1cc2c(cc1C)[n+](=O)c(C#N)c(Cl)n2[O-]`, the TGI stood at 45.3 µM in the assay on CCRF-CEM leukemia; 70.9 µM with U251 CNS; 92.5 µM in the assay with SK-MEL-2 melanoma; 42.3 µM in the assay on NCI/ADR-RES ovarian; 26.3 µM in the assay on NCI-H522 lung; 30 µM with MALME-3M melanoma. Moreover, the TGI with SN12C renal stood at 28.3 µM; in the assay with A498 renal, 39.5 µM; with UACC-257 melanoma it was 27 µM.
For the molecule `Nc1nncc2c1ccn2C1OC(CO)C(O)C1O` (configuration not stated), the TGI in the assay on CCRF-CEM leukemia, in the assay on U251 CNS, with SK-MEL-2 melanoma, in the assay on MALME-3M melanoma, in the assay with SN12C renal and with KM12 colon was above 100 µM throughout. Moreover, the TGI with A498 renal and with UACC-257 melanoma was above 100 µM each time.
For `O=C(CCl)NC(Cc1ccc(F)cc1)C(=O)O` (configuration not stated), the TGI in the assay with CCRF-CEM leukemia, in the assay on U251 CNS, in the assay on SK-MEL-2 melanoma, in the assay on NCI/ADR-RES ovarian, in the assay with NCI-H522 lung and with MALME-3M melanoma was above 100 µM throughout. Moreover, the TGI in the assay on SN12C renal, in the assay on KM12 colon, with A498 renal and in the assay on UACC-257 melanoma was above 100 µM in each case.
As to `CCC1CN2CCC1CC2` (configuration not stated), the TGI with CCRF-CEM leukemia, with U251 CNS, in the assay with SK-MEL-2 melanoma, with NCI/ADR-RES ovarian, with NCI-H522 lung and with MALME-3M melanoma was above 100 µM each time. For the same molecule, the TGI with SN12C renal, with KM12 colon, with A498 renal and with UACC-257 melanoma was above 100 µM in each case.
With `N=c1nc2n(cc1F)[C@@H]1O[C@H](CO)[C@@H](O)[C@@H]1O2`, the TGI in the assay on CCRF-CEM leukemia is above 12.3 µM; in the assay with U251 CNS it was above 91.9 µM; in the assay on SK-MEL-2 melanoma, above 100 µM; with NCI/ADR-RES ovarian, above 100 µM; with NCI-H522 lung, above 74.7 µM; with MALME-3M melanoma, above 34 µM. Also, the TGI in the assay with SN12C renal, in the assay on KM12 colon, in the assay with A498 renal and in the assay on UACC-257 melanoma was above 100 µM throughout.
Take `C=C1CC[C@@H](Br)C(C)(C)[C@]12CCC(C)(O)C(Cl)C2` (some centres not stated): the TGI in the assay with CCRF-CEM leukemia turned out to be 47.9 µM; in the assay on U251 CNS, 29.7 µM; with SK-MEL-2 melanoma, 39.7 µM; in the assay with NCI-H522 lung, 32 µM; in the assay on MALME-3M melanoma it was 86.2 µM; in the assay with SN12C renal, 30 µM. Besides, the TGI amounted to 33.8 µM with KM12 colon, 44.7 µM in the assay with A498 renal and 32.4 µM in the assay with UACC-257 melanoma.
Turning to `Oc1c2c(c3c4c1N=CC=4CCN=3)-c1c(Br)cc(Br)cc1CCN2`, the TGI was determined as 6.7 µM in the assay with CCRF-CEM leukemia; 12.2 µM in the assay on U251 CNS; 13.5 µM in the assay with SK-MEL-2 melanoma; 12.5 µM with NCI/ADR-RES ovarian; 4.2 µM with NCI-H522 lung; 5.86 µM with SN12C renal. Besides, the TGI in the assay with KM12 colon turned out to be 9.21 µM; in the assay with A498 renal, 24.7 µM; in the assay on UACC-257 melanoma, 2.86 µM.
For the molecule `CC(=O)OC/C=C/Cn1ncc(=O)[nH]c1=O`, the TGI in the assay with U251 CNS, with SK-MEL-2 melanoma, with NCI/ADR-RES ovarian, in the assay on NCI-H522 lung, with MALME-3M melanoma and with SN12C renal was above 100 µM in each case. Moreover, the TGI in the assay with KM12 colon and in the assay with A498 renal was above 100 µM throughout.
Take `CC[C@H](Nc1nc(N)nc(C)c1C#N)c1nc2cccc(NCc3ccc(C(=O)NO)cc3)c2c(=O)n1-c1ccccc1`: the GI50 was 0.679 µM in the assay with CCRF-CEM leukemia; 2.43 µM with SK-MEL-2 melanoma; 13.5 µM in the assay with NCI/ADR-RES ovarian; 1.63 µM with MALME-3M melanoma; 1.7 µM in the assay with KM12 colon; 1.04 µM with A498 renal. In addition, the GI50 in the assay on UACC-257 melanoma was 1.94 µM. Also, the TGI is above 100 µM in the assay with CCRF-CEM leukemia; 6.21 µM with SK-MEL-2 melanoma; above 100 µM with NCI/ADR-RES ovarian; 4.13 µM in the assay on MALME-3M melanoma; 3.29 µM in the assay on KM12 colon; 2.42 µM in the assay with A498 renal. This molecule showed a TGI with UACC-257 melanoma of 6.2 µM.
Consider `CCOC(=O)[C@H]1Nc2c(cccc2[N+](=O)[O-])[C@H]2OCC[C@@H]12`, for which the TGI in the assay with U251 CNS, in the assay on SK-MEL-2 melanoma, in the assay on NCI-H522 lung, in the assay on MALME-3M melanoma, in the assay with SN12C renal and in the assay on KM12 colon was above 100 µM in each case. For the same molecule, the TGI in the assay with UACC-257 melanoma came to 86.1 µM.
